ChEMBL document CHEMBL3885861, “Open TG-GATES”
Values joined by “and” are separate entries in the source; they are usually repeats but may differ in a detail not shown here. Equal values may be shown once.

Organism: Rattus norvegicus
Assay: Open TG-GATES - Regimen: Single
Assay type: toxicity, organism-based, Sprague-Dawley
Set-up: regimen Single, gender Male, age 6 weeks
Settings: in vivo, po, route gavage; for LIVER: tissue Liver; for ALP / ALT / AST / BUN / CRE / Ca / Cl / GLC / IP / K / LDH / Na / PL / RALB / TC / TP / gamma-GTP / DBIL / TBIL: tissue Plasma; for APTT / Bas / Eos / Fbg / Hb / Ht / Lym / MCH / MCHC / MCV / Mono / Neu / PT / Plat / RBC / Ret / WBC: tissue Blood; for KIDNEY_L / KIDNEY_R / KIDNEY_TOTAL: tissue Kidney
[1] = 0 mg/kg, 24 h, dose level Control

O=P1(N(CCCl)CCCl)NCCCO1 (stereo unspecified) [CYCLOPHOSPHAMIDE ANHYDROUS]
LIVER [1]: 9.8 g and 8.7 g
ALP [1]: 1816 IU/L and 1543.8 IU/L
ALT [1]: 45.6 IU/L and 38 IU/L
AST [1]: 71.2 IU/L and 71.6 IU/L
BUN [1]: 16.4 mg/dL and 13.6 mg/dL
CRE [1]: 0.2 mg/dL
Ca [1]: 10.7 mg/dL and 11.1 mg/dL
Cl [1]: 104.8 meq/L and 105.8 meq/L
GLC [1]: 189.6 mg/dL and 178.8 mg/dL
IP [1]: 7.3 mg/dL and 7.8 mg/dL
K [1]: 4.4 meq/L
LDH [1]: 192.2 IU/L and 79 IU/L
Na [1]: 142.6 meq/L and 141 meq/L
PL [1]: 161.6 mg/dL and 160.8 mg/dL
RALB [1]: 2.9 g/dL and 2.6 g/dL
TC [1]: 82 mg/dL and 82.6 mg/dL
TP [1]: 5.4 g/dL and 5.6 g/dL
gamma-GTP [1]: 1.2 IU/L
TERMINAL_BW (2 mg/kg, 3 h, dose level Low): 191.9 g
APTT (2 mg/kg, 3 h, dose level Low): 22.6 s
Bas (2 mg/kg, 3 h, dose level Low): 0%
Eos (2 mg/kg, 3 h, dose level Low): 0.4%
Fbg (2 mg/kg, 3 h, dose level Low): 284.6 mg/dL
Hb (2 mg/kg, 3 h, dose level Low): 13.1 g/dL
Ht (2 mg/kg, 3 h, dose level Low): 39.2%
Lym (2 mg/kg, 3 h, dose level Low): 85.4%
MCH (2 mg/kg, 3 h, dose level Low): 21.8 pg
MCHC (2 mg/kg, 3 h, dose level Low): 33.3%
MCV (2 mg/kg, 3 h, dose level Low): 65.4 fL
Mono (2 mg/kg, 3 h, dose level Low): 1.4%
Neu (2 mg/kg, 3 h, dose level Low): 12.4%
PT (2 mg/kg, 3 h, dose level Low): 15.9 s
Plat (2 mg/kg, 3 h, dose level Low): 119.4 x10_4/uL
RBC (2 mg/kg, 3 h, dose level Low): 600.4 x10_4/ul
Ret (2 mg/kg, 3 h, dose level Low): 8.8%
WBC (2 mg/kg, 3 h, dose level Low): 81 x10_2/uL
KIDNEY_L (2 mg/kg, 3 h, dose level Low): 0.9 g
KIDNEY_R (2 mg/kg, 3 h, dose level Low): 0.9 g
KIDNEY_TOTAL (2 mg/kg, 3 h, dose level Low): 1.8 g
LIVER (2 mg/kg, 3 h, dose level Low): 9 g
ALP (2 mg/kg, 3 h, dose level Low): 1623.4 IU/L
ALT (2 mg/kg, 3 h, dose level Low): 42.2 IU/L
AST (2 mg/kg, 3 h, dose level Low): 73.4 IU/L
BUN (2 mg/kg, 3 h, dose level Low): 12.4 mg/dL
CRE (2 mg/kg, 3 h, dose level Low): 0.1 mg/dL
Ca (2 mg/kg, 3 h, dose level Low): 10.8 mg/dL
Cl (2 mg/kg, 3 h, dose level Low): 107.2 meq/L
DBIL (2 mg/kg, 3 h, dose level Low): 0 mg/dL
GLC (2 mg/kg, 3 h, dose level Low): 190 mg/dL
IP (2 mg/kg, 3 h, dose level Low): 7.9 mg/dL
K (2 mg/kg, 3 h, dose level Low): 4.1 meq/L
LDH (2 mg/kg, 3 h, dose level Low): 181.4 IU/L
Na (2 mg/kg, 3 h, dose level Low): 144 meq/L
PL (2 mg/kg, 3 h, dose level Low): 119.2 mg/dL
RALB (2 mg/kg, 3 h, dose level Low): 2.9 g/dL
TBIL (2 mg/kg, 3 h, dose level Low): 0.022 mg/dL
TC (2 mg/kg, 3 h, dose level Low): 64.4 mg/dL
TP (2 mg/kg, 3 h, dose level Low): 5.2 g/dL
gamma-GTP (2 mg/kg, 3 h, dose level Low): 1 IU/L
TERMINAL_BW (2 mg/kg, 6 h, dose level Low): 187.4 g
APTT (2 mg/kg, 6 h, dose level Low): 21.7 s
Bas (2 mg/kg, 6 h, dose level Low): 0%
Eos (2 mg/kg, 6 h, dose level Low): 0.8%
Fbg (2 mg/kg, 6 h, dose level Low): 301.4 mg/dL
Hb (2 mg/kg, 6 h, dose level Low): 13.1 g/dL
Ht (2 mg/kg, 6 h, dose level Low): 39.4%
Lym (2 mg/kg, 6 h, dose level Low): 76.2%
MCH (2 mg/kg, 6 h, dose level Low): 21.4 pg
MCHC (2 mg/kg, 6 h, dose level Low): 33.4%
MCV (2 mg/kg, 6 h, dose level Low): 64.2 fL
Mono (2 mg/kg, 6 h, dose level Low): 2.2%
Neu (2 mg/kg, 6 h, dose level Low): 20.2%
PT (2 mg/kg, 6 h, dose level Low): 16 s
Plat (2 mg/kg, 6 h, dose level Low): 121.6 x10_4/uL
RBC (2 mg/kg, 6 h, dose level Low): 613.6 x10_4/ul
Ret (2 mg/kg, 6 h, dose level Low): 8.5%
WBC (2 mg/kg, 6 h, dose level Low): 94.5 x10_2/uL
KIDNEY_L (2 mg/kg, 6 h, dose level Low): 0.9 g
KIDNEY_R (2 mg/kg, 6 h, dose level Low): 0.9 g
KIDNEY_TOTAL (2 mg/kg, 6 h, dose level Low): 1.7 g
LIVER (2 mg/kg, 6 h, dose level Low): 8 g
ALP (2 mg/kg, 6 h, dose level Low): 1350.2 IU/L
ALT (2 mg/kg, 6 h, dose level Low): 39.2 IU/L
AST (2 mg/kg, 6 h, dose level Low): 69.2 IU/L
BUN (2 mg/kg, 6 h, dose level Low): 10.2 mg/dL
CRE (2 mg/kg, 6 h, dose level Low): 0.1 mg/dL
Ca (2 mg/kg, 6 h, dose level Low): 10.6 mg/dL
Cl (2 mg/kg, 6 h, dose level Low): 106.8 meq/L
DBIL (2 mg/kg, 6 h, dose level Low): 0 mg/dL
GLC (2 mg/kg, 6 h, dose level Low): 184.8 mg/dL
IP (2 mg/kg, 6 h, dose level Low): 9.4 mg/dL
K (2 mg/kg, 6 h, dose level Low): 4.4 meq/L
LDH (2 mg/kg, 6 h, dose level Low): 195.2 IU/L
Na (2 mg/kg, 6 h, dose level Low): 142.8 meq/L
PL (2 mg/kg, 6 h, dose level Low): 136.8 mg/dL
RALB (2 mg/kg, 6 h, dose level Low): 2.9 g/dL
TBIL (2 mg/kg, 6 h, dose level Low): 0.032 mg/dL
TC (2 mg/kg, 6 h, dose level Low): 78.2 mg/dL
TP (2 mg/kg, 6 h, dose level Low): 5.3 g/dL
gamma-GTP (2 mg/kg, 6 h, dose level Low): 1.2 IU/L
TERMINAL_BW (2 mg/kg, 9 h, dose level Low): 193.9 g
APTT (2 mg/kg, 9 h, dose level Low): 20.9 s
Bas (2 mg/kg, 9 h, dose level Low): 0%
Eos (2 mg/kg, 9 h, dose level Low): 0.6%
Fbg (2 mg/kg, 9 h, dose level Low): 312.6 mg/dL
Hb (2 mg/kg, 9 h, dose level Low): 12.9 g/dL
Ht (2 mg/kg, 9 h, dose level Low): 38.9%
Lym (2 mg/kg, 9 h, dose level Low): 76.4%
MCH (2 mg/kg, 9 h, dose level Low): 21.2 pg
MCHC (2 mg/kg, 9 h, dose level Low): 33.1%
MCV (2 mg/kg, 9 h, dose level Low): 64.1 fL
Mono (2 mg/kg, 9 h, dose level Low): 1.6%
Neu (2 mg/kg, 9 h, dose level Low): 20.6%
PT (2 mg/kg, 9 h, dose level Low): 16.1 s
Plat (2 mg/kg, 9 h, dose level Low): 120.1 x10_4/uL
RBC (2 mg/kg, 9 h, dose level Low): 607.2 x10_4/ul
Ret (2 mg/kg, 9 h, dose level Low): 8.3%
WBC (2 mg/kg, 9 h, dose level Low): 83.5 x10_2/uL
KIDNEY_L (2 mg/kg, 9 h, dose level Low): 0.9 g
KIDNEY_R (2 mg/kg, 9 h, dose level Low): 0.9 g
KIDNEY_TOTAL (2 mg/kg, 9 h, dose level Low): 1.8 g
LIVER (2 mg/kg, 9 h, dose level Low): 8.3 g
ALP (2 mg/kg, 9 h, dose level Low): 1429.8 IU/L
ALT (2 mg/kg, 9 h, dose level Low): 36.4 IU/L
AST (2 mg/kg, 9 h, dose level Low): 69 IU/L
BUN (2 mg/kg, 9 h, dose level Low): 10.2 mg/dL
CRE (2 mg/kg, 9 h, dose level Low): 0.2 mg/dL
Ca (2 mg/kg, 9 h, dose level Low): 10.7 mg/dL
Cl (2 mg/kg, 9 h, dose level Low): 106.4 meq/L
DBIL (2 mg/kg, 9 h, dose level Low): 0 mg/dL
GLC (2 mg/kg, 9 h, dose level Low): 179.2 mg/dL
IP (2 mg/kg, 9 h, dose level Low): 10.1 mg/dL
K (2 mg/kg, 9 h, dose level Low): 4 meq/L
LDH (2 mg/kg, 9 h, dose level Low): 221 IU/L
Na (2 mg/kg, 9 h, dose level Low): 143.4 meq/L
PL (2 mg/kg, 9 h, dose level Low): 142.4 mg/dL
RALB (2 mg/kg, 9 h, dose level Low): 3.1 g/dL
TBIL (2 mg/kg, 9 h, dose level Low): 0.036 mg/dL
TC (2 mg/kg, 9 h, dose level Low): 81.2 mg/dL
TP (2 mg/kg, 9 h, dose level Low): 5.4 g/dL
gamma-GTP (2 mg/kg, 9 h, dose level Low): 1 IU/L
